From article PMC9122913 (Nature Communications, 2022)

Target: T1, Cyclin-dependent kinase 2 (CDK2) (Homo sapiens, UniProt P24941)
T1 construct: Full-length human CDK2, GST-N-terminal tagged fusion protein
Assay: pulldown of purified GST-CDK2 with HHT-conjugated beads (free HHT competes in lysate pulldown); DARTS in HEK293 lysate; CDK2/Cyclin A2 kinase assay inhibited at […] HHT
Type: binding
Source text: Thus, hydrogen-bonds with T47, R50 and R150 appear critical

Compound: COC(=O)C[C@](O)(CCCC(C)(C)O)C(=O)O[C@@H]1C(OC)=C[C@]23CCCN2CCc2cc4c(cc2[C@H]13)OCO4 [HHT, homoharringtonine]
- pulldown of purified GST-CDK2 with HHT-conjugated beads (free HHT competes in ly): interaction between HHT and CDK2-3As was abolished (Fig. 1G). Thus, hydrogen-bonds with T47, R50 and R150 appear critical
